What all share (format): cell-based
One assay relates to S. pneumoniae 0541. Kind of assay: MIC, microtiter broth serial dilution test. Particulars: Streptococcus pneumoniae.
Another assay has as its system S. pyogenes 0542. The assay is described as follows: MIC, microtiter broth serial dilution test. The settings on record: Streptococcus pyogenes.
Another assay concerns H. influenzae ATCC 0529. The assay is described as follows: MIC, microtiter broth serial dilution test. The settings on record: Haemophilus influenzae, ATCC0529.
For assay [1], the system named is S. aureus Smith ATCC 0329. The assay is described as follows: MIC, microtiter broth serial dilution test. The settings on record: Staphylococcus aureus, ATCC0329.
Another assay deals with E. faecalis ATCC 0004. Kind of assay: MIC, microtiter broth serial dilution test. Particulars: Enterococcus faecalis, ATCC0004.
The subject of a further assay is M. catarrhalis ATCC 0324. Kind of assay: MIC, microtiter broth serial dilution test. The settings on record: Moraxella catarrhalis, ATCC0324.
Assay [2] concerns erythromycin resistant strains of Streptococcus pneumoniae. Kind of assay: MIC, erythromycin resistant strains.
The test system of assay [3] is erythromycin resistant strains of Streptococcus pyogenes. The assay is described as follows: MIC, erythromycin resistant strains.

Molecules are shown by their SMILES.

Take `CC[C@H]1OC(=O)[C@H](C)[C@@H](O[C@H]2C[C@@](C)(OC)[C@@H](OC(=O)NCCOCCOCCCc3ccc4c(c3)c(=O)c(C(=O)O)cn4CC)[C@H](C)O2)[C@H](C)[C@@H](O[C@@H]2O[C@H](C)CC(N(C)C)[C@H]2O)[C@](C)(O)C[C@@H](C)CN(C)[C@H](C)[C@@H](O)[C@]1(C)O` (some centres unmarked) [Example 4, 4,1-(2-{2-[3-(3-Carboxy-1-ethyl-4-oxo-1,4-dihydro-quinolin-6-yl)-propoxy]-ethoxy}-ethylcarbamoyl)-azithromycin]: the MIC in the assay on S. pneumoniae 0541 is no more than 0.125 µg/mL; against S. pyogenes 0542, no more than 0.125 µg/mL; with H. influenzae ATCC 0529, no more than 0.125 µg/mL; in assay [1], no more than 0.125 µg/mL; in the assay on E. faecalis ATCC 0004, no more than 0.125 µg/mL; against M. catarrhalis ATCC 0324 it was no more than 0.5 µg/mL.

As for `CC[C@H]1OC(=O)[C@H](C)[C@@H](OC2C[C@@](C)(OC)[C@H](OC(=O)NCCOCCOCCNc3cc4c(=O)c(C(=O)O)cn(C5CC5)c4cc3Cl)[C@@H](C)O2)[C@H](C)[C@@H](O[C@@H]2O[C@H](C)CC(N(C)C)[C@H]2O)[C@](C)(O)C[C@@H](C)CN(C)[C@H](C)[C@@H](O)[C@]1(C)O` (some centres unmarked) [Example 2, 4″-O-2-{2-[2-(3-Carboxy-7-chloro-1-cyclopropyl-4-oxo-1,4-dihydro-quinolin-6-ylamino)-ethoxy]-ethoxy}-ethylcarbamoyl-azithromycin], the MIC against S. pneumoniae 0541 is no more than 0.125 µg/mL; in assay [2], no more than 0.125 µg/mL; in the assay on S. pyogenes 0542, no more than 0.125 µg/mL; against H. influenzae ATCC 0529, no more than 2 µg/mL; in assay [1], no more than 0.125 µg/mL; in assay [3], no more than 0.125 µg/mL. Moreover, the MIC against E. faecalis ATCC 0004 is no more than 0.125 µg/mL.

Regarding `CC[C@H]1OC(=O)[C@H](C)[C@@H](O[C@H]2C[C@@](C)(OC)[C@@H](OC(=O)NCCOCCOCC#Cc3ccc4c(c3)c(=O)c(C(=O)O)cn4CC)[C@H](C)O2)[C@H](C)[C@@H](O[C@@H]2O[C@H](C)CC(N(C)C)[C@H]2O)[C@](C)(O)C[C@@H](C)CN(C)[C@H](C)[C@@H](O)[C@]1(C)O` (some centres unmarked) [Example 3, 4″-(2-{2-[3-(3-Carboxy-1-ethyl-4-oxo-1,4-dihydro-quinolin-6-yl)-prop-2-ynyloxy]-ethoxy}-ethylcarbamoyl)-azithromycin], the MIC against S. pneumoniae 0541 was no more than 0.125 µg/mL; with S. pyogenes 0542, no more than 0.125 µg/mL; with H. influenzae ATCC 0529, no more than 0.125 µg/mL; in assay [1] it was no more than 0.125 µg/mL; against E. faecalis ATCC 0004, no more than 0.125 µg/mL; with M. catarrhalis ATCC 0324 it was no more than 0.5 µg/mL.

As to `CC[C@H]1OC(=O)[C@H](C)[C@@H](OC2C[C@@](C)(OC)[C@@H](OC(=O)NCCOCCOCCNc3cc4c(=O)c(C(=O)O)cn(C5CC5)c4cc3Cl)[C@H](C)O2)[C@H](C)[C@@H](OC2O[C@H](C)C[C@H](N(C)C)[C@H]2O)[C@](C)(OC)C[C@@H](C)C(=O)[C@H](C)[C@@H](O)[C@]1(C)O` (some centres unmarked) [Example 1, 4″-O-2-{2-[2-(3-Carboxy-7-chloro-1-cyclopropyl-4-oxo-1,4-dihydro-quinolin-6-ylamino)-ethoxy]-ethoxy}-ethylcarbamoyl-6-O-methyl erythromycin A], the MIC in the assay with S. pneumoniae 0541 was no more than 0.125 µg/mL; in assay [2], no more than 0.125 µg/mL; against S. pyogenes 0542, no more than 0.125 µg/mL; in the assay on H. influenzae ATCC 0529, no more than 2 µg/mL; in assay [1] it was no more than 0.125 µg/mL; in assay [3], no more than 0.125 µg/mL. In the assay on E. faecalis ATCC 0004, this compound came in with an MIC of no more than 0.125 µg/mL.

(Values after patent US20080249033A1, “Carbamate Linked Macrolides Useful For The Treatment Of Microbial Infections” (priority 2004, published 2008).)
